pIC50: −log10 of the molar value. ≈ marks a conversion by molar mass, not a printed value. Like-named read-outs stand apart in the source and are kept apart here.

One test has as its system Botrtyis cinerea (Bc). Description: Growth inhibition assay of fungal pathogens, Bc. Conditions: 48 h, growth inhibition at 48 hours vs 2% DMSO control. The class given is cell-based. A digest of the protocol: (§1)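 Spores from sub-cultured plates were diluted in 17% V8 liquid medium and exposed to compound from DMSO stocks at final concentrations of 50, 10 and 2 ppm or 2, 0.4 and 0.08 ppm. OD600 and visual ratings at 48 h were compared with the 2% DMSO control to give percent growth inhibition.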

The test system of a further test is C. krusei. Briefly: Antifungal Activity Assay (broth microtiter MIC), C. krusei. The class given is cell-based, Candida krusei. As to conditions: Pichia kudriavzevii, ATCC6258, 48 h. The method, boiled down: (§2)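 CLSI M27-A3 broth microdilution in RPMI 1640+MOPS, final inoculum 2.5×10^3 CFU/mL from overnight Sabouraud cultures grown at 35 °C. MIC read visually at 48 h against growth control.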

Another test deals with Rhizoctonia solani (Rs). Description: Growth inhibition assay of fungal pathogens, Rs. The class given is cell-based. Conditions: 48 h.
Another test concerns C. parapsilosis. Description: Antifungal Activity Assay (broth microtiter MIC), C. parapsilosis. The test is classed as cell-based, Candida parapsilosis. As to conditions: Lodderomyces parapsilosis, ATCC22019, 48 h. The method, boiled down: as §2
Test [1] relates to Phytophthora capsici (Pc). Briefly: Growth inhibition assay of fungal pathogens, Pc. The test is classed as cell-based. As to conditions: 48 h. A digest of the protocol: as §1
In test [2] the test system is Fusarium moniliforme (Fm). Description: Growth inhibition assay of fungal pathogens, Fm. The test is classed as cell-based. Conditions: Fusarium verticillioides, 48 h, read-out: Concentration at 90% Inhibition Fm. A digest of the protocol:
as §1

The test system of another test is Septoria tritici (St). Briefly: Growth inhibition assay of fungal pathogens, St. The test is classed as cell-based. As to conditions: Zymoseptoria tritici, 48 h, growth inhibition at 48 hours vs 2% DMSO control. A digest of the protocol:
as §1

Another test deals with fungal (fACC2) (UniProt Q00955). Conditions: read-out: fACC2 (in vitro ACC2 Inhibition Assay, IC50), ADP-Glo, 5 nM ACC2, 20 μM ATP, 20 μM acetyl-CoA. A general note: ADP-Glo first removes unused ATP, then detects ADP through luciferase.
Sequence of fungal (fACC2) (Q00955 whole entry): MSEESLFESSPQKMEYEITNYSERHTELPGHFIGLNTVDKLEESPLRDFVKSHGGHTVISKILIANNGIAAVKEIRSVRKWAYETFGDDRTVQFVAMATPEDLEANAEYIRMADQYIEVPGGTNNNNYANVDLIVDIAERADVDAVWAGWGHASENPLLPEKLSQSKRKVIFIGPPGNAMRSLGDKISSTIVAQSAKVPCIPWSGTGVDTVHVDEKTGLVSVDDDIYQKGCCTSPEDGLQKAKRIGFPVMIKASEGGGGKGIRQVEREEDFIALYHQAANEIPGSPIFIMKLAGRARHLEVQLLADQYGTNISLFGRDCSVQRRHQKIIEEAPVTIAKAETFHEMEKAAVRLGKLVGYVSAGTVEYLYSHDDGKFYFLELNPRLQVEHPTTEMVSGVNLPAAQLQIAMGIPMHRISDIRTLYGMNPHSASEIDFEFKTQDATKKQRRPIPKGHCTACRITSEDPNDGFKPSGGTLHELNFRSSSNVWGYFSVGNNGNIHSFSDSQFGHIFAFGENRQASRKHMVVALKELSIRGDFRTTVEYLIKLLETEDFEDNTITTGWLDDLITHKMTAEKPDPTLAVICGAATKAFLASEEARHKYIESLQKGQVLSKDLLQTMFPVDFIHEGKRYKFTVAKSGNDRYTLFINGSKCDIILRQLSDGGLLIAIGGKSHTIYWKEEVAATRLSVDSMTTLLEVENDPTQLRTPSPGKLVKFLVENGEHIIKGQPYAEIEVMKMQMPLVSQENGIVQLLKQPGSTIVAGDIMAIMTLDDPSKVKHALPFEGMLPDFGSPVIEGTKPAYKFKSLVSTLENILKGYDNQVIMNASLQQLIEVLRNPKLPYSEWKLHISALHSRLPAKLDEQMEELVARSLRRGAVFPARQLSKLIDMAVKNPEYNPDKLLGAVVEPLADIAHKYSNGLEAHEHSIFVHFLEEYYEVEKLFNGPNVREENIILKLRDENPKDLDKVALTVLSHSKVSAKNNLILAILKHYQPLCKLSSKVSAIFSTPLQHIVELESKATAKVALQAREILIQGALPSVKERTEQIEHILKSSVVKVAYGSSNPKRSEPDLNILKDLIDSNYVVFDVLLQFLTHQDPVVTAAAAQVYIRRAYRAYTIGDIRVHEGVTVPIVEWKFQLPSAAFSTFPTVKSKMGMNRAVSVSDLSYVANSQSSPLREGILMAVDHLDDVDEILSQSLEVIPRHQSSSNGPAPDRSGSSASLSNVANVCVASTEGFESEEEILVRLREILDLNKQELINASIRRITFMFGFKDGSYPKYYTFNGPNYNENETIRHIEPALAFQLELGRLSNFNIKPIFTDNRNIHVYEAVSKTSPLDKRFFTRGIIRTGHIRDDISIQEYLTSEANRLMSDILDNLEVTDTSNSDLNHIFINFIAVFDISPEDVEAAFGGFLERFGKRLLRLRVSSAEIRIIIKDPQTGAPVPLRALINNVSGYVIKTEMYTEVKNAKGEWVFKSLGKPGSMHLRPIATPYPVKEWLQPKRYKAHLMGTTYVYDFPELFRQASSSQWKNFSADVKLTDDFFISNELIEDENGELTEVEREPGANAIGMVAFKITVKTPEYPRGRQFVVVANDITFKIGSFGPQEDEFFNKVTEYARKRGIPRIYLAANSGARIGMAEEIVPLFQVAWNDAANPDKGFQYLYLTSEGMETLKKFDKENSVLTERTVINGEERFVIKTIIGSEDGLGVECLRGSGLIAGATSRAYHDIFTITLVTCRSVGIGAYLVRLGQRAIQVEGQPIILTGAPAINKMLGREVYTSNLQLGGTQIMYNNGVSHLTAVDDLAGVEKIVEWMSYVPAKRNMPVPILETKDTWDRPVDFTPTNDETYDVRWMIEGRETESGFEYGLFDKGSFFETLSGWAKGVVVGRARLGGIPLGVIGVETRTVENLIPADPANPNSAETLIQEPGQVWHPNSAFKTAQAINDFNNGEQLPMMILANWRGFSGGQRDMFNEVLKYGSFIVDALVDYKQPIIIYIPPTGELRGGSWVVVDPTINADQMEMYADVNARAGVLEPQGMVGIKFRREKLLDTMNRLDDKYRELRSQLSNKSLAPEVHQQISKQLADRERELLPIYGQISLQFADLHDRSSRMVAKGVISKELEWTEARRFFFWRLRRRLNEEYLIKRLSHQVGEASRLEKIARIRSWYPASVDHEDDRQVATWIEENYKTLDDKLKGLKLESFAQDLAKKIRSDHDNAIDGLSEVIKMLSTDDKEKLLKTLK
For test [3], the system named is Fusarium virguliforme (Fv). Briefly: Growth inhibition assay of fungal pathogens, Fv. The class given is cell-based. Conditions: 48 h. The method, boiled down: as §1
For a further test, the target named is human (hACC2) (Homo sapiens, UniProt O00763). Briefly: In vitro ACC inhibition assay (ADP-Glo), hACC2. The class given is biochemical. As to conditions: 5 nM ACC2, 20 μM ATP, 20 μM acetyl-CoA. Here is the method: The detailed procedure is as follows. […] 10 μL ADP glo reagent was added. […] 20 μL kinase detection reagent was added.
Sequence of human (hACC2) (O00763 whole entry): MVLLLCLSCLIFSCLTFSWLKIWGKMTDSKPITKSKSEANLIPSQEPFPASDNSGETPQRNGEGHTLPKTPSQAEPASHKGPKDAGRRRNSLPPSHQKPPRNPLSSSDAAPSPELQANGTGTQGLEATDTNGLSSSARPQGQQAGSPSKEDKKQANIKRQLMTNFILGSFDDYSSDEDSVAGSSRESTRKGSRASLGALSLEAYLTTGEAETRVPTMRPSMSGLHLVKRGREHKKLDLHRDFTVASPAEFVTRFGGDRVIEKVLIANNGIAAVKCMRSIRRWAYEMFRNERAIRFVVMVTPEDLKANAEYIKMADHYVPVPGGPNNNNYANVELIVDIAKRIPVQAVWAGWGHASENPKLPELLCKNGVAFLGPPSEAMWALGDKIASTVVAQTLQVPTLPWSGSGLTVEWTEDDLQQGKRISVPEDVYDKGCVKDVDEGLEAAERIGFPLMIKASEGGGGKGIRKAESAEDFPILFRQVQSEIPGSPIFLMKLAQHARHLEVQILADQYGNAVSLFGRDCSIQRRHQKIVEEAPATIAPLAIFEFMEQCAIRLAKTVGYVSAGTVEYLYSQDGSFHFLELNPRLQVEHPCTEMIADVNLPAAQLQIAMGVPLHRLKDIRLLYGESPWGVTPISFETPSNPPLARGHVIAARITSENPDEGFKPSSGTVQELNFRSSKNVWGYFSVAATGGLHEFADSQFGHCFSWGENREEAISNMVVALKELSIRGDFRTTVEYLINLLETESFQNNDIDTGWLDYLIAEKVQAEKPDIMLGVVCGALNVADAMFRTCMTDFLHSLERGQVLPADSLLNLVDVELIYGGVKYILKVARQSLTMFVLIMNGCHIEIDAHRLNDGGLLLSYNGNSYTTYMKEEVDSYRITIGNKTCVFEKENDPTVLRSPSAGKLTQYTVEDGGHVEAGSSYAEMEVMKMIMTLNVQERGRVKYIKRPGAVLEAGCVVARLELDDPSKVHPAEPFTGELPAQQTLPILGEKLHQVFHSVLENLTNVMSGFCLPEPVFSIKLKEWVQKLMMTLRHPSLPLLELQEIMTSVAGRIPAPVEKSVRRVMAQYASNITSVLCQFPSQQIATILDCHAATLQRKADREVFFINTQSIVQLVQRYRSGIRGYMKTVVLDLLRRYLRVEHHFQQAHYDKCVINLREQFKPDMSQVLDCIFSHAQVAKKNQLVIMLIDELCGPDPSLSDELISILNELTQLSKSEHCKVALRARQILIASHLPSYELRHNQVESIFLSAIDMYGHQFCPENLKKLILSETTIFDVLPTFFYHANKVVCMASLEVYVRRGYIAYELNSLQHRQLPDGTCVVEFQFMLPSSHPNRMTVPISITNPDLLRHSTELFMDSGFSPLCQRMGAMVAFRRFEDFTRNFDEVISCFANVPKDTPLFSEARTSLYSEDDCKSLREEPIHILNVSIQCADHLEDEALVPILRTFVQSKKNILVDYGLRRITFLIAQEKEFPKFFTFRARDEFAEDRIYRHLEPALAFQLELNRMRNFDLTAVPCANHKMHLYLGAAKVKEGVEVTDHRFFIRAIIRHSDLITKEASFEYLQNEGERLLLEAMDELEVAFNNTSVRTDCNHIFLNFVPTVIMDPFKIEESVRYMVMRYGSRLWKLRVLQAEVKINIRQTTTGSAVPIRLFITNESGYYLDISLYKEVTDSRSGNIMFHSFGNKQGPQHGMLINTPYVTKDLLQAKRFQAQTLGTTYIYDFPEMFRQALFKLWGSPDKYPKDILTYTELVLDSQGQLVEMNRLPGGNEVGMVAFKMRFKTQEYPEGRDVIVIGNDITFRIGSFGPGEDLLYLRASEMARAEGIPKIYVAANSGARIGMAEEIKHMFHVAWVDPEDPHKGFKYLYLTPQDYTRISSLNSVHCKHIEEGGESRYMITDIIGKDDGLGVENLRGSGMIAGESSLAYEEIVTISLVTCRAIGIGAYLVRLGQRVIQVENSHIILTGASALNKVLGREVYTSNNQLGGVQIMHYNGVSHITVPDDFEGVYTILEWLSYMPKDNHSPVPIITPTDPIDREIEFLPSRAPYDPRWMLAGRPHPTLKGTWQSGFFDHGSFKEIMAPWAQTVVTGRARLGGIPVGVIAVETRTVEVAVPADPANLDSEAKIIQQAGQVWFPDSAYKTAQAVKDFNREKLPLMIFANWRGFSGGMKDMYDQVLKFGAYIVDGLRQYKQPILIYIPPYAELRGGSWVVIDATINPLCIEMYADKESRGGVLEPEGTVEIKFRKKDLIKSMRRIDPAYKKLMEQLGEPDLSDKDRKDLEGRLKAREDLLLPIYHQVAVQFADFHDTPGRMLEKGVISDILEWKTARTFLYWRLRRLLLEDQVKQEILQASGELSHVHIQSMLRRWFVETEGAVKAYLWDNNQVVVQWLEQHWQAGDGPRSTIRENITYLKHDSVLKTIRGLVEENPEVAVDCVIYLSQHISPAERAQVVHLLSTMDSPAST
In the next test the test system is Diplodia maydis (Dm). Description: Growth inhibition assay of fungal pathogens, Dm. The test is classed as cell-based. Conditions: Stenocarpella maydis, 48 h, growth inhibition at 48 hours vs 2% DMSO control. A digest of the protocol: as §1
Test [4] has as its system Collectotrichum graminicola (Cg). Briefly: Growth inhibition assay of fungal pathogens, Cg. The class given is cell-based. Conditions: 48 h, growth inhibition at 48 hours vs 2% DMSO control. A digest of the protocol:
as §1

The test system of the next test is C. albicans. Briefly: Antifungal Activity Assay (broth microtiter MIC), C. albicans. The test is classed as cell-based, Candida albicans. Conditions: Candida albicans, ATCC90028, 48 h. A digest of the protocol: as §2
The mark [5] stands for this setting: Botrtyis cinerea, read-out: Concentration at 90% Inhibition Bc.
Setting [6] is: Table 3b (additional results), ATCC 6258, 3 replicates, MIC recorded at 48 h, read-out: MIC, C. krusei ATCC 6258.
The mark [7] stands for this setting: mycelial plugs, growth inhibition at 48 hours vs 2% DMSO control, read-out: Concentration at 90% Inhibition Rs.
Setting [8] is: Table 3b (additional results), ATCC 22019, 3 replicates, MIC recorded at 48 h, read-out: MIC, C. parapsilosis ATCC 22019.
The mark [9] stands for this setting: growth inhibition at 48 hours vs 2% DMSO control, read-out: Concentration at 90% Inhibition Pc.
Setting [10] is: Fusarium moniliforme, growth inhibition at 48 hours vs 2% DMSO control.
Setting [11] is: Septoria tritici, read-out: Concentration at 90% Inhibition St.
The mark [12] stands for this setting: growth inhibition at 48 hours vs 2% DMSO control, read-out: Concentration at 90% Inhibition Fv.
Setting [13] is: Diplodia maydis, read-out: Concentration at 90% Inhibition Dm.
Where [14] appears, read: Collectotrichum graminicola, read-out: Concentration at 90% Inhibition Cg.
[15] abbreviates: Table 3b (additional results), ATCC 90028, 3 replicates, MIC recorded at 48 h, read-out: MIC, C. albicans ATCC 90028.

`COc1ccc(F)cc1[C@H](Cn1c(=O)n(C(C)(C)C(=O)NC(C)C)c(=O)c2c(C)c(-n3nccn3)sc21)OCC(C)(C)C#N` [Compound I-154]: the IC90 was 0.4 µg/mL (≈ 0.639 µM) with Botrtyis cinerea (Bc) (read-out: Concentration at 90% Inhibition Bc, Botrtyis cinerea); 0.08 µg/mL (≈ 0.128 µM) with Rhizoctonia solani (Rs) (read-out: Concentration at 90% Inhibition Rs, Rhizoctonia solani, mycelial plugs, growth inhibition at 48 hours vs 2% DMSO control); greater than 50 µg/mL in test [1] (read-out: Concentration at 90% Inhibition Pc, Phytophthora capsici, growth inhibition at 48 hours vs 2% DMSO control); 0.08 µg/mL (≈ 0.128 µM) in [2]; greater than 50 µg/mL in the test with Septoria tritici (St) (read-out: Concentration at 90% Inhibition St, Septoria tritici); 0.4 µg/mL (≈ 0.639 µM) in test [3] (read-out: Concentration at 90% Inhibition Fv, Fusarium virguliforme, growth inhibition at 48 hours vs 2% DMSO control). Moreover, the IC90 turned out to be 0.08 µg/mL (≈ 0.128 µM) with Diplodia maydis (Dm) (read-out: Concentration at 90% Inhibition Dm, Diplodia maydis) and 0.4 µg/mL (≈ 0.639 µM) in test [4] (read-out: Concentration at 90% Inhibition Cg, Collectotrichum graminicola). Further, the minimum inhibitory concentration (MIC) is 0.25 to 1 µg/mL (≈ 0.4 to 1.6 µM) in the test with C. krusei (read-out: MIC, C. krusei ATCC 6258, Table 3a, 3 replicates, MIC recorded at 48 h); 0.25 to 1 µg/mL (≈ 0.4 to 1.6 µM) in the test on C. krusei (read-out: MIC, C. krusei ATCC 6258, Table 3b (additional results), 3 replicates, MIC recorded at 48 h); 0.25 to 1 µg/mL (≈ 0.4 to 1.6 µM) with C. parapsilosis (read-out: MIC, C. parapsilosis ATCC 22019, Table 3a, 3 replicates, MIC recorded at 48 h); 1.01 to 2 µg/mL (≈ 1.61 to 3.2 µM) in the test with C. parapsilosis (read-out: MIC, C. parapsilosis ATCC 22019, Table 3b (additional results), 3 replicates, MIC recorded at 48 h); 0.25 to 1 µg/mL (≈ 0.4 to 1.6 µM) with C. albicans (read-out: MIC, C. albicans ATCC 90028, Table 3a, 3 replicates, MIC recorded at 48 h); 0.25 to 1 µg/mL (≈ 0.4 to 1.6 µM) in the test on C. albicans (read-out: MIC, C. albicans ATCC 90028, Table 3b (additional results), 3 replicates, MIC recorded at 48 h). Further, the negative-log IC50 (pIC50) at fungal (fACC2) (Table 2a) is 8.30 to 9.00; at fungal (fACC2) (Table 2b, additional results), 8.30 to 9.00; against human (hACC2) (Table 2a) it was 8.00 to 8.30; against human (hACC2) (Table 2b, additional results) it was 8.00 to 8.30.

Regarding `COc1ccc(F)cc1[C@H](Cn1c(=O)n([C@H](C)C(=O)N2CCCC2)c(=O)c2c(C)c(-n3nccn3)sc21)OCCC#N` [Compound I-187], the IC90 with Botrtyis cinerea (Bc) (setting [5]) is 0.4 µg/mL (≈ 0.672 µM); with Rhizoctonia solani (Rs) (setting [7]), 0.4 µg/mL (≈ 0.672 µM); in [1] (setting [9]), greater than 50 µg/mL; in test [2] (setting [10]), 0.08 µg/mL (≈ 0.134 µM); in the test with Septoria tritici (St) (setting [11]), greater than 50 µg/mL; in test [3] (setting [12]) it was 0.4 µg/mL (≈ 0.672 µM). The IC90 (with Diplodia maydis (Dm) (setting [13]); in test [4] (setting [14])) was 2 µg/mL (≈ 3.36 µM) in each case. Further, the results for the MIC in the test on C. krusei (setting [6]), with C. parapsilosis (setting [8]) and with C. albicans (setting [15]) were 2.01 to 4 µg/mL (≈ 3.37 to 6.72 µM), 1.01 to 2 µg/mL (≈ 1.7 to 3.36 µM) and 2.01 to 4 µg/mL (≈ 3.37 to 6.72 µM), respectively. For the same compound, the pIC50 at fungal (fACC2) (Table 2b, additional results) is 8.30 to 9.00; against human (hACC2) (Table 2b, additional results), 8.30 to 9.00.

`COc1ccc(F)cc1[C@H](Cn1c(=O)n([C@@H](C)C(=O)N(C)C(C)C)c(=O)c2c(C)c(-n3nccn3)sc21)OCCC#N` [Compound I-188]: the IC90 with Botrtyis cinerea (Bc) (setting [5]) is 2 µg/mL (≈ 3.35 µM); in the test on Rhizoctonia solani (Rs) (setting [7]), 2 µg/mL (≈ 3.35 µM); in [1] (setting [9]) it was greater than 50 µg/mL; in test [2] (setting [10]) it was 0.4 µg/mL (≈ 0.669 µM); in the test with Septoria tritici (St) (setting [11]) it was greater than 50 µg/mL; in [3] (setting [12]) it was 2 µg/mL (≈ 3.35 µM). Moreover, the IC90 with Diplodia maydis (Dm) (setting [13]) worked out at 2 µg/mL (≈ 3.35 µM); in test [4] (setting [14]), 10 µg/mL (≈ 16.7 µM). In addition, the minimum inhibitory concentration (MIC) in the test on C. krusei (setting [6]), in the test with C. parapsilosis (setting [8]) and in the test on C. albicans (setting [15]) was 2.01 to 4 µg/mL (≈ 3.36 to 6.69 µM) throughout. For the same compound, the negative-log IC50 (pIC50) was 9.00 to 9.52 on fungal (fACC2) (Table 2b, additional results) and 8.00 to 8.30 against human (hACC2) (Table 2b, additional results).

As to `COc1ccc(F)cc1[C@@H](O)Cn1c(=O)n(C(C)(C)C(N)=O)c(=O)c2c(C)c(-n3nccn3)sc21` [Compound I-194], the IC90 in the test with Botrtyis cinerea (Bc) (setting [5]) is 10 µg/mL (≈ 19.9 µM); with Rhizoctonia solani (Rs) (setting [7]), greater than 50 µg/mL; in test [1] (setting [9]), greater than 50 µg/mL; in [2] (setting [10]) it was 10 µg/mL (≈ 19.9 µM); in the test with Septoria tritici (St) (setting [11]) it was greater than 50 µg/mL; in test [3] (setting [12]) it was greater than 50 µg/mL. Besides, the IC90 (with Diplodia maydis (Dm) (setting [13]); in [4] (setting [14])) was greater than 50 µg/mL each time. Also, the results for the MIC with C. krusei (setting [6]), in the test with C. parapsilosis (setting [8]) and in the test with C. albicans (setting [15]) were 2.01 to 4 µg/mL (≈ 4 to 7.96 µM), greater than 4.01 µg/mL and 2.01 to 4 µg/mL (≈ 4 to 7.96 µM), respectively. The pIC50 on fungal (fACC2) (Table 2b, additional results) was 8.30 to 9.00; on human (hACC2) (Table 2b, additional results), 8.00 to 8.30.

As usually defined, the MIC is the lowest concentration found to suppress growth. One may read the pIC50 as the IC50 on a negative log10 scale, so that one unit is a factor of ten.

These data come from US10800791B2, “Triazole ACC inhibitors and uses thereof” (Gilead Apollo, LLC, priority 2015, dated 2020).
